# Results published in patent US9155301B2, “Antimicrobial agent comprising a cysteine component covalently bound to a substrate in particular by binding through an S-S bridge via a spacer molecule” (priority 2005, dated 2015).
# Tested on: Staphylococcus aureus (B5381, a clinical isolate)
# Assay: Inhibition of bacterial growth in culture incubated with modified surface
# Format: cell-based
# Conditions: Example 11; dissolved in culture at 50 μg/ml and 5 μg/ml; initial culture exceeding 4 million cfu/ml
# Description: The following analysis was performed with three (3) different strains of bacteria, but the applications are not limited to these: A clinical isolate (from a patient with sepsis) of Gram positive bacterium Staphylococcus aureus, (a clinical isolate B5381), the Gram positive bacterium Bacillus megaterium (strain Bm11), the Gram negative bacterium Escherichia coli (strain D21). This selection of bacteria comprises both Gram positive and Gram negative bacteria including bacteria that are of significant problems clinically.
# […] LB medium (Luria Bertani broth) has been inoculated with specific bacterial strain, but not limited to this medium. The strain selected has been plated on an agar plate of selected medium the day before, and permitted to grow over night at 37° C. Several colonies were scraped from the plate and used to inoculate the medium which subsequently was allowed to grow up to an optical density of 0.4. […] The number of bacteria was determined by plating serial dilutions and counting colonies in the appropriate dilutions. […]
# Subsequent to incubation (in the presently described case: 2.5 h), the disc was removed from each tube using a sterile pair of tweezers. The culture in which the disc had been incubated was in parallel transferred to a separate sterile eppendorf tube, and its titer was determined as described. […]
structure (smiles),measurement,value
"N[C@@H](CS)C(=O)O [dissolved L-cysteine, L-cysteine]",inhibition of growth in culture with dissolved substance,No inhibition
